# pIC50: −log10 of the molar value.
# Tests used:
# Rattus norvegicus [1] = experiment: Compound was evaluated in vivo for its activity in the rat pyresis assay.; type: functional
# Rattus norvegicus [2] = experiment: Compound was evaluated in vivo for its activity in the rat paw edema assay.; type: functional
# Rattus norvegicus [3] = organism: Rattus norvegicus; experiment: Clearance in rat plasma; type: functional, organism-based
# [4] = molecular target: T1, Prostaglandin G/H synthase 1 (Rattus norvegicus, UniProt Q63921); experiment: In vitro inhibition of Prostaglandin G/H synthase 1
# T1 sequence (Q63921 whole entry): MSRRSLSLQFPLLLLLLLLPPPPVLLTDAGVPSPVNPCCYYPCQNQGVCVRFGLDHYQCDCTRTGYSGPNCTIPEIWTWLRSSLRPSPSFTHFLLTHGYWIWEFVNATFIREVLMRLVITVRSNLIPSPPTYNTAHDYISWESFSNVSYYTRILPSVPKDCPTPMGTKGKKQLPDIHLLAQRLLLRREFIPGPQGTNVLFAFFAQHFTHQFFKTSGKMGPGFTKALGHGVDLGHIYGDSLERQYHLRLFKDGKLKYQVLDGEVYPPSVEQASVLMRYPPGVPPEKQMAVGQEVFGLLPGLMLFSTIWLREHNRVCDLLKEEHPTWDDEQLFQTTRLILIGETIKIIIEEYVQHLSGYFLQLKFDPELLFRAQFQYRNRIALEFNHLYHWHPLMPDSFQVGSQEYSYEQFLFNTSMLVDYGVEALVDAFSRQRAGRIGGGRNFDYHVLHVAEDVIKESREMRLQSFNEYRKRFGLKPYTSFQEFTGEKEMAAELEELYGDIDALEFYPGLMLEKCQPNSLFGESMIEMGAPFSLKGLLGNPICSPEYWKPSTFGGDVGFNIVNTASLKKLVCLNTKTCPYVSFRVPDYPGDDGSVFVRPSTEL
# [5] = molecular target: T2, Prostaglandin G/H synthase 2 (Rattus norvegicus, UniProt P35355); experiment: In vitro inhibition of Prostaglandin G/H synthase 2
# T2 sequence (P35355 whole entry): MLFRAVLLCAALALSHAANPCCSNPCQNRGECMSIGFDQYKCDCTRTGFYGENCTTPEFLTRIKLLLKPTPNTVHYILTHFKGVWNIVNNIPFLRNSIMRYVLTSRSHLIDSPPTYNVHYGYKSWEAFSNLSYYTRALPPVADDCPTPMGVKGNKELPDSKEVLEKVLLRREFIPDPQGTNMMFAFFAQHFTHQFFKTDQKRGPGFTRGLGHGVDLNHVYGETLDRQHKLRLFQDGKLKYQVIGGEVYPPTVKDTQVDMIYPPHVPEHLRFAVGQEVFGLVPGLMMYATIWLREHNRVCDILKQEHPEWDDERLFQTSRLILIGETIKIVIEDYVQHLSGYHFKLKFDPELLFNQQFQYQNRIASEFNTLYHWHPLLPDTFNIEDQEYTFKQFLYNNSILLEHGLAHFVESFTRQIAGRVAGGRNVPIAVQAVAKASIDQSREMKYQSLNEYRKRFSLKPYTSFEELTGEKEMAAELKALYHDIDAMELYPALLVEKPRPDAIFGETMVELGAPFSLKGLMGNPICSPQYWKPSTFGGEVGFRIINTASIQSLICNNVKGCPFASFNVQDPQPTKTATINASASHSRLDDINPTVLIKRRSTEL
# [6] = Cmax in rat plasma; type: ADME, organism-based
SMILES,ED50 (Rattus norvegicus [1]) [mg/kg],ED30 (Rattus norvegicus [2]) [mg/kg],CL (mL.min-1.kg-1) (Rattus norvegicus [3]),pIC50 [4],pIC50 [5],Cmax [6] [µM]
COc1ccc2c(c1)c(CC(=O)O)c(C)n2C(=O)c1ccc(Cl)cc1 [INDOMETHACIN],1,0.4,,,,
COc1ccc2c(c1)c(C[C@@H](C)CC(=O)O)c(C)n2Cc1ccc(Br)cc1,1.9,0.4,2.8,< 5.00,7.22,24.3
COc1ccc2c(c1)c(C[C@H](C)CC(=O)O)c(C)n2Cc1ccc(Br)cc1,,> 3,21,< 5.00,7.70,14.4
COc1ccc2c(c1)c(CC(C)CC(=O)O)c(C)n2Cc1ccc(Br)cc1 (configuration not stated),,0.4,5.7,< 5.00,7.30,
